Test results reported in patent US20060040884A1, “Antisense oligonucleotides directed to genes regulated by trapoxin-induced HDAC inhibition” (priority 2001, published 2006).
Square brackets hold non-standard residues; d marks the D form. Peptide text beside a SMILES is read from it. ξ: configuration not given here. Aoe(9ξ) = N[C@@H](CCCCCC(=O)C1CO1)C(=O)O; dPip = O=C(O)[C@H]1CCCCN1

Experiments:
p21waf1 = assay: Immunoblot detection of p21waf1 protein induction in response to trapoxin A; format: cell-based, human; conditions: H1299 cells, 48 h
Procedure: (§1) Detection of p21^waf1 and RhoB protein induction in response to trapoxin A treatment. […] Whole lysates are prepared in triple detergent lysis buffer (50 mM Tris, pH 8, 150 mM NaCl, 0.02% NaN3, 0.1% SDS, 1% Nonidet P-40, 0.5% sodium deoxycholate, 100 μg/ml phenylmethylsulfonyl fluoride, 1 μg/ml aprotinin) and proteins are separated by SDS-polyacrylamide electrophoresis, electrophoretically transferred to nitrocellulose membranes, and incubated with anti-p21^waf1 (BD Pharmingen, San Jose, Calif.) or anti-RhoB (Santa Cruz Biotechnologies, Santa Cruz Calif.). Immunoreactive proteins are visualized using ECL chemiluminescence system (Amersham Pharmacia Biotech., Piscataway, N.J.).

RhoB = assay: Western/immunoblot detection of RhoB protein in TPX-treated H1299 cells; format: cell-based, human; conditions: 30 nM
Procedure: as §1
H1299 non-small lung carcinoma cells are treated with 30 nM trapoxin A or 0.1% dimethysulphoxide or untreated for 0, 8, 24 and 48 h for RhoB. Whole lysates are prepared in triple detergent lysis buffer (50 mM Tris, pH 8, 150 mM NaCl, 0.02% NaN3, 0.1% SDS, 1% Nonidet P-40, 0.5% sodium deoxycholate, 100 μg/ml phenylmethylsulfonyl fluoride, 1 μg/ml aprotinin) and proteins are separated by SDS-polyacrylamide electrophoresis, electrophoretically transferred to nitrocellulose membranes, and incubated with anti-RhoB (Santa Cruz Biotechnologies, Santa Cruz Calif.). Immunoreactive proteins are visualized using ECL chemiluminescence system (Amersham Pharmacia Biotech., Piscataway, N.J.). […]

Q: What does the source list for `O=C(CCCCC[C@@H]1NC(=O)[C@H]2CCCCN2C(=O)[C@H](Cc2ccccc2)NC(=O)[C@H](Cc2ccccc2)NC1=O)C1CO1` (some centres unmarked) [TPX, Trapoxin A] (cyclo(FF[dPip][Aoe(9ξ)]))?
A: TPX-induced p21waf1 expression (Western blotting) (p21waf1): decreased; RhoB protein level (Western analysis) (RhoB): up-regulated
